The nature of data set [1]: Caco-2 permeability assay (apical to basolateral). The data set is classed as in vitro ADME, human. The note with it: Caco-2, average of 3 replicates; read-out: Caco_Papp_Average. The arrangement: Caco_R1 / Caco_R3: unit not given here. The protocol:
(§1) Human colon adenocarcinoma-derived Caco-2 cell line was used as a model system to investigate the intestinal epithelial permeability of our designs. Caco-2 cells were propagated in T125 flasks (Corning, Merck) using Dulbecco’s modified Eagle medium supplemented with 10% (v/v) fetal bovine serum, 1% (v/v) nonessential amino acids, and 1% (v/v) penicillin-streptomycin (Gibco, Thermo Fisher Scientific) at 37°C in an atmosphere of 5% CO2. Cells were subcultured when they reached 80% confluence.
(§2) The permeability of designed peptides was evaluated using an accelerated 6-day Caco-2 permeability assay as described previously ([Sevin et al., 2013]). In brief, cells were seeded into the 12-well Transwell plates with 0.4 μm polyester membrane inserts (Corning, Merck) to give 4.0 × 10^5 cells/well. The complete assay medium contained Dulbecco’s modified Eagle medium supplemented with 10% (v/v) fetal bovine serum, 1% (v/v) nonessential amino acids, and 0.4 μg/mL puromycin. The medium in plates was renewed every second day. The inserts received 0.75 mL of assay medium in the upper compartment (apical chamber) and 1.5 mL in the bottom compartment (basolateral chamber) individually. After 6-day incubation or until the cells formed monolayers, the medium in the apical and basolateral chamber was replaced with peptide solutions at 50 μM or Hanks' Balanced Salt Solution (HBSS), separately. The plates were incubated for 90 min at 37°C on an orbital shaker (60 rpm). The peptide concentration of solutions in the apical and basolateral compartments was subsequently quantified using LC-MS (Qstar Elite, AB Sciex Australia) to evaluate the transmembrane flux of peptides in the apical-to-basolateral direction. Membrane integrity of the Caco-2 cell monolayer was validated using trans-epithelial electrical resistance (TEER) measurements before and after the assays. Atenolol and quinidine were included as negative and positive controls in all assays.

In data set [2] the test system is Caco-2 cells. The data set can be described thus: Caco-2 permeability assay (apical to basolateral). Type of data set: in vitro ADME, human. The arrangement: Caco_R1 / Caco_R3: unit not given here. The procedure: as §1, §2
(Passage across Caco-2 layers is used to estimate intestinal permeability.)

For data set [3] the following is noted: PAMPA. On the technique in general: PAMPA measures passive passage across an artificial lipid membrane.
A short description of data set [4]: in vitro. The note with it: PAMPA, PAMPA_Papp_Avg.

Where a SMILES comes first, the peptide text is derived from it. [ ]: non-standard residue; d: D form. NMeF = CN[C@@H](Cc1ccccc1)C(=O)O; dNMeF = CN[C@H](Cc1ccccc1)C(=O)O; NMeL = CN[C@@H](CC(C)C)C(=O)O; dNMeL = CN[C@H](CC(C)C)C(=O)O; NMeA = CN[C@@H](C)C(=O)O; dNMeA = CN[C@H](C)C(=O)O; Sar = CNCC(=O)O

Experimental findings from paper PMC9490236, “Accurate de novo design of membrane-traversing macrocycles” (Cell, 2022) are described below.

A word on the Papp: it is a coefficient for how fast a substance crosses the barrier.

As for `CC[C@@H](C)[C@H]1NC(=O)[C@H](CC(C)C)NC(=O)[C@@H](CC(C)C)NC(=O)[C@H](C(C)C)NC(=O)[C@@H](Cc2ccccc2)N(C)C(=O)[C@@H]2CCCN2C(=O)[C@@H](CC(C)C)NC(=O)[C@H](CC(C)C)NC(=O)[C@H]2CCCN2C1=O` (single isomer, unassigned) [Design D9.4.p1, LEU DILE DPRO LEU DLEU PRO *DPHE VAL DLEU], the Papp A→B in data set [1] turned out to be 3.76 ×10⁻⁶ cm/s. This compound registered a Caco_R1 in data set [2] (Caco-2 Papp, replicate 1) of 3.39. In data set [2] (Caco-2 Papp, replicate 3), this compound had a Caco_R3 of 6.

In the case of `CC(C)C[C@@H]1NC(=O)[C@@H](C(C)C)NC(=O)[C@H](Cc2ccccc2)N(C)C(=O)[C@H]2CCCN2C(=O)[C@H]2CCCN2C(=O)[C@@H](C)NC(=O)[C@H](Cc2ccccc2)N(C)C(=O)[C@H]2CCCN2C(=O)[C@@H](C(C)C)NC(=O)[C@@H]2CCCN2C1=O` [Design D10.4, *PHE DVAL LEU PRO DVAL DPRO *PHE DALA DPRO DPRO] (cyclo(LP[dV][dP][NMeF][dA][dP][dP][NMeF][dV])), in data set [1], the Papp A→B is 0.627 ×10⁻⁶ cm/s. The Caco_R1 in data set [2] (Caco-2 Papp, replicate 1) is 1.39. Besides, in data set [2] (Caco-2 Papp, replicate 3), the Caco_R3 is 0.49.

`CC[C@H](C)[C@@H]1NC(=O)[C@H](Cc2ccccc2)N(C)C(=O)[C@H](CC(C)C)N(C)C(=O)[C@@H](C(C)C)NC(=O)[C@@H](C)NC(=O)[C@@H]2CCCN2C(=O)[C@@H](CC(C)C)NC(=O)[C@@H]2CCCN2C(=O)[C@H](C)NC1=O` (single isomer, unassigned) [Design D9.6.p2]: the Caco_R1 in data set [2] (Caco-2 Papp, replicate 1) came out at 3.08. Further, the Caco_R3 in data set [2] (Caco-2 Papp, replicate 3) worked out at 7.44.

As for `CC[C@@H](C)[C@H]1NC(=O)[C@H](CC(C)C)NC(=O)[C@@H](CC(C)C)NC(=O)[C@H](C(C)C)NC(=O)[C@@H](Cc2ccccc2)N(C)C(=O)[C@@H]2CCCN2C(=O)[C@@H](CC(C)C)NC(=O)[C@H](CC(C)C)NC(=O)[C@H]2CCCN2C1=O` (single isomer, unassigned) [Design D9.4.p2, LEU DILE DPRO LEU DLEU PRO *DPHE VAL DLEU], in data set [2] (Caco-2 Papp, replicate 1), the Caco_R1 worked out at 3.27. The compound also gave a Caco_R3 in data set [2] (Caco-2 Papp, replicate 3) of 2.03.

In data set [3], `CC[C@@H](C)[C@H]1NC(=O)[C@@H](Cc2ccccc2)NC(=O)[C@H](CC(C)C)NC(=O)[C@@H](C)N(C)C(=O)[C@@H](CC(C)C)NC(=O)[C@H](CC(C)C)NC(=O)[C@H]2CCCN2C(=O)[C@@H]2CCCN2C(=O)[C@@H](C)NC(=O)[C@H]2CCCN2C1=O` [Design D10.37, DLEU *DALA LEU DPHE DILE DPRO DALA PRO DPRO LEU] (cyclo(L[dF][dI][dP][dA]P[dP]L[dL][dNMeA])) registered a PAMPA_R1 of 7.62E-07 and a PAMPA_R3 of 6.36E-07. The compound further registered a Papp in data set [4] of 0.654 ×10⁻⁶ cm/s.

In data set [3], `CC(C)C[C@@H]1NC(=O)[C@@H](CC(C)C)NC(=O)[C@@H](CC(C)C)N(C)C(=O)[C@@H](CC(C)C)N(C)C(=O)[C@H](C(C)C)NC(=O)[C@@H](C)N(C)C(=O)[C@@H]2CCCN2C(=O)[C@@H]2CCCN2C(=O)[C@@H](C)N(C)C1=O` [Design D9.19, PRO *DALA VAL *DLEU *DLEU DLEU LEU *DALA PRO] (cyclo(L[dNMeA]PP[dNMeA]V[dNMeL][dNMeL][dL])) had a PAMPA_R1 of 1.47E-06 and a PAMPA_R3 of 1.16E-06. The compound also came in with a Papp in data set [4] of 1.28 ×10⁻⁶ cm/s.

In data set [3], `C[C@H]1NC(=O)[C@@H](Cc2ccccc2)NC(=O)[C@H](Cc2ccccc2)N(C)C(=O)[C@H](Cc2ccccc2)N(C)C(=O)[C@@H](Cc2ccccc2)NC(=O)[C@H]2CCCN2C(=O)CNC(=O)[C@@H](C)NC(=O)[C@@H]2CCCN2C(=O)[C@@H](Cc2ccccc2)NC1=O` [Design D10.62, DALA GLY DPRO DPHE *PHE *PHE DPHE DALA DPHE PRO] (cyclo(G[dP][dF][NMeF][NMeF][dF][dA][dF]P[dA])) registered a PAMPA_R1 of 4.48E-06 and a PAMPA_R3 of 4.48E-06. Besides, the Papp in data set [4] was 4.23 ×10⁻⁶ cm/s.

For the compound `CC[C@H](C)[C@@H]1NC(=O)[C@@H](CC(C)C)N(C)C(=O)[C@H](CC(C)C)N(C)C(=O)[C@@H](C)N(C)C(=O)[C@@H](Cc2ccccc2)NC(=O)[C@H](C(C)C)NC(=O)[C@@H](C)NC(=O)[C@@H]2CCCN2C(=O)[C@H]2CCCN2C1=O` [Design D9.10, VAL DPHE *DALA *LEU *DLEU ILE DPRO PRO DALA] (cyclo([dA]V[dF][dNMeA][NMeL][dNMeL]I[dP]P)), in data set [3], the PAMPA_R1 is recorded as 1.20E-06 and the PAMPA_R3 is given as 6.09E-07. The compound further registered a Papp in data set [4] of 0.826 ×10⁻⁶ cm/s.

In data set [2] (Caco-2), `CC(C)C[C@@H]1NC(=O)[C@@H]2CCCN2C(=O)[C@@H](Cc2ccccc2)NC(=O)[C@H](C)N(C)C(=O)[C@H](CC(C)C)NC(=O)[C@H](CC(C)C)N(C)C(=O)[C@@H](C)NC(=O)[C@@H](CC(C)C)NC(=O)[C@@H]2CCCN2C(=O)[C@@H](Cc2ccccc2)NC1=O` (single isomer, unassigned) [Design D10.2.p2, LEU DPHE PRO DLEU DALA *LEU LEU *ALA DPHE PRO] gave a Caco_Papp_Average of 0, a Caco_R1 of 0 and a Caco_R3 of 0. In data set [3], this compound returned a PAMPA_Papp_Avg of 3.60E-07, a PAMPA_R1 of 4.31E-07 and a PAMPA_R3 of 4.68E-07.

In data set [3], `CC[C@@H](C)[C@H]1NC(=O)[C@@H]2CCCN2C(=O)[C@@H](Cc2ccccc2)NC(=O)[C@H](CC(C)C)N(C)C(=O)[C@H](C)NC(=O)[C@H]2CCCN2C(=O)[C@@H]2CCCN2C(=O)[C@H](CC(C)C)NC(=O)[C@H](CC(C)C)N(C)C(=O)[C@H](C)N(C)C1=O` [Design D10.26, PRO DILE *ALA *LEU LEU PRO DPRO ALA *LEU DPHE] (cyclo(A[NMeL][dF]P[dI][NMeA][NMeL]LP[dP])) came in with a PAMPA_R1 of 1.40E-06 and a PAMPA_R3 of 1.69E-06. Also, in data set [4], the Papp was determined as 1.51 ×10⁻⁶ cm/s.

In data set [3], `CC(C)C[C@@H]1NC(=O)[C@@H]2CCCN2C(=O)[C@H]2CCCN2C(=O)[C@H](CC(C)C)NC(=O)[C@H](C)N(C)C(=O)[C@H]2CCCN2C(=O)[C@@H](CC(C)C)NC1=O` [Design D7.6, DLEU DPRO *ALA LEU DPRO PRO LEU] (cyclo(L[dL][dP][NMeA]L[dP]P)) showed a PAMPA_R1 of 2.16e-06 cm/s and a PAMPA_R3 of 6.12e-06 cm/s. The compound further displayed a Papp in data set [4] of 3.62 ×10⁻⁶ cm/s.

For `CC(C)C[C@@H]1NC(=O)[C@@H](CC(C)C)N(C)C(=O)[C@@H]2CCCN2C(=O)[C@H](CC(C)C)N(C)C(=O)[C@@H](C)NC(=O)[C@@H](CC(C)C)N(C)C(=O)[C@@H]2CCCN2C(=O)CN(C)C(=O)[C@H](CC(C)C)N(C)C(=O)[C@H](Cc2ccccc2)NC1=O` [Design D10.57, *LEU *GLY PRO *DLEU DALA *LEU PRO *DLEU LEU PHE] (cyclo(F[NMeL][Sar]P[dNMeL][dA][NMeL]P[dNMeL]L)), in data set [3], the PAMPA_R1 amounted to 2.94E-06 and the PAMPA_R3 amounted to 3.42E-06. Further, the Papp in data set [4] worked out at 3.05 ×10⁻⁶ cm/s.

In data set [3], `CC(C)C[C@@H]1NC(=O)[C@H](C)NC(=O)[C@@H]2CCCN2C(=O)[C@H]2CCCN2C(=O)[C@H](Cc2ccccc2)NC(=O)[C@H]2CCCN2C(=O)[C@@H](Cc2ccccc2)N(C)C(=O)[C@@H]2CCCN2C(=O)[C@@H](C)NC(=O)[C@H](CC(C)C)NC1=O` [Design D10.49, DALA PRO *DPHE DPRO PHE DPRO PRO ALA LEU LEU] (cyclo(ALL[dA]P[dNMeF][dP]F[dP]P)) displayed a PAMPA_R1 of 2.36E-07 and a PAMPA_R3 of 1.35E-07. In data set [4], this compound displayed a Papp of 0.17 ×10⁻⁶ cm/s.

With `CC[C@@H](C)[C@H]1NC(=O)[C@H](Cc2ccccc2)NC(=O)[C@@H](C)NC(=O)[C@@H](CC(C)C)N(C)C(=O)[C@@H]2CCCN2C(=O)[C@H](C)NC(=O)[C@H]2CCCN2C(=O)[C@@H]2CCCN2C(=O)[C@@H](Cc2ccccc2)NC1=O` [Design D9.41, PRO DPRO ALA PRO *DLEU DALA PHE DILE DPHE] (cyclo(AP[dNMeL][dA]F[dI][dF]P[dP])), in data set [3], the PAMPA_R1 worked out at 3.56E-06 and the PAMPA_R3 stood at 3.41E-06. The Papp in data set [4] worked out at 3.48 ×10⁻⁶ cm/s.

In data set [3], `CC[C@H](C)[C@@H]1NC(=O)[C@H](CC(C)C)N(C)C(=O)[C@H]2CCCN2C(=O)[C@H]2CCCN2C(=O)[C@H](Cc2ccccc2)NC(=O)[C@@H](CC(C)C)NC(=O)[C@H]2CCCN2C(=O)[C@@H]2CCCN2C1=O` [Design D8.27, PHE DPRO DPRO *LEU ILE PRO DPRO DLEU] (cyclo(F[dP][dP][NMeL]IP[dP][dL])) gave a PAMPA_R1 of 2.88E-07 and a PAMPA_R3 of 2.76E-07. This compound gave a Papp in data set [4] of 0.282 ×10⁻⁶ cm/s.

With `CC(C)C[C@@H]1C(=O)N[C@H](C)C(=O)N(C)[C@H](CC(C)C)C(=O)N2CCC[C@@H]2C(=O)N[C@H](CC(C)C)C(=O)N[C@@H](C)C(=O)N[C@H](CC(C)C)C(=O)N2CCC[C@@H]2C(=O)N1C` [Design D8.25, DLEU DPRO *DLEU DALA *DLEU DPRO DLEU ALA] (cyclo(A[dL][dP][dNMeL][dA][dNMeL][dP][dL])), in data set [3], the PAMPA_R1 is listed as 7.42E-07 and the PAMPA_R3 turned out to be 9.32E-07. Besides, the Papp in data set [4] is 0.824 ×10⁻⁶ cm/s.
